Values of other authors in patent US20130266625A1 (YISSUM RESEARCH DEVELOPMENT COMPANY OF THE HEBREW …, priority 2011, published 2013).

What was measured:
[1] = 50 mg/day over one year
[2] = system: procollagen alpha1 (I), MMP-1 and TIMP-1 expression in skin; conditions: 5% in ethanol:olive oil (1:2), 12 times over 4 weeks
[3] = system: cultured dermal fibroblasts

Question: Which harmful consequences [1] does the source give for `C[C@]12CC[C@H](O)CC1=CC[C@@H]1[C@@H]2CC[C@]2(C)C(=O)CC[C@@H]12` [DHEA, dehydroepiandrosterone] here?
Answer: no harmful consequences were observed

Question: What about the “skin status (hydration, epidermal thickness, sebum production, skin pigmentation)” value ([1]; individuals aged 60 years and over) of the same compound?
Answer: improvement of the skin status

Question: What about the “basal expression of MMP-1 mRNA and protein” value [2] of the same compound?
Answer: significantly decreased

Question: What about the “expression of procollagen alpha1 (I) mRNA and protein” value ([2]; aged and young skin) of the same compound?
Answer: significantly increase

Question: And the “expression of TIMP-1 protein” value ([2]; aged skin)?
Answer: increased

Question: What about the “matrix metalloproteinase (MMP)-1 synthesis” value [3] of the same compound?
Answer: decreasing

Question: And the procollagen synthesis [3]?
Answer: increase procollagen synthesis

Question: What about the “tissue inhibitor of matrix metalloprotease (TIMP-1) production” value [3] of the same compound?
Answer: increasing
